Earlier results, collected in patent US20230190754A1, “Therapeutic combinations for the treatment of Progressive Fibrosing interstitial lung diseases” (Boehringer Ingelheim International GmbH, priority 2021, published 2023).

Tested on: human lung fibroblasts
Details: combination with nintedanib; cited from earlier work

[O-][S@+]1CCc2nc(N3CCC(c4ncc(Cl)cn4)CC3)nc(NC3(CO)CCC3)c21 [Comp. of form. III]
Effect on fibroblast proliferation (in words): synergistic overadditive effect
